Data reported in PubChem BioAssay (NCI).
“And” between values parts separate entries of the source, which are not always exact repeats. Equal entries are not always repeated.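 Protocol summary: plate cells (96-well), add compound at 5 concentrations, incubate 48 h, interpolate endpoints linearly. Here, GI50 denotes the concentration required for 50% inhibition of growth. Definition used: TGI = concentration required for complete inhibition of growth.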

Legend:
Experiment in all cases: NCI anticancer screen, dose series, 48 h
CCRF-CEM leukemia = system: CCRF-CEM leukemia
NCI-H522 lung = system: NCI-H522 lung
IGROV1 ovarian = system: IGROV1 ovarian
A498 renal = system: A498 renal
MCF7 breast = system: MCF7 breast
HT29 colon = system: HT29 colon
COLO 205 colon = system: COLO 205 colon
MDA-MB-435 = system: MDA-MB-435
MDA-N = system: MDA-N

Row | SMILES | GI50 (CCRF-CEM leukemia) | TGI (CCRF-CEM leukemia) | GI50 (NCI-H522 lung) | TGI (NCI-H522 lung) | GI50 (IGROV1 ovarian) | TGI (IGROV1 ovarian) | GI50 (A498 renal) | TGI (A498 renal) | GI50 (MCF7 breast) | TGI (MCF7 breast) | GI50 (HT29 colon) | TGI (HT29 colon) | GI50 (COLO 205 colon) | TGI (COLO 205 colon) | GI50 (MDA-MB-435) | TGI (MDA-MB-435) | TGI (MDA-N) | GI50 (MDA-N)
1 | O=[N+]([O-])c1cccc(-c2cc(-c3cc(Br)ccc3O)[nH]n2)c1 | 3.94 µM | 19.9 µM | 1.49 µM | 3.66 µM | 2.27 µM | 7.06 µM | 1.86 µM | 8.63 µM | 1.42 µM | 7.05 µM | 3.55 µM | 12 µM | 2.23 µM | 5.16 µM | 1.77 µM | 4.58 µM |  | 
2 | CN1C(=O)C(c2c[nH]c3ccccc23)=C(c2c(-c3c[nH]c4ccccc34)[nH]c3ccccc23)C1=O | 3.19 µM | 12.4 µM | 12.3 µM | > 100 µM | 9.53 µM | > 100 µM | 1.89 µM | 8.12 µM | 2.27 µM | 6.26 µM | 2.73 µM | 8.36 µM | 2.8 µM | 7.89 µM | 1.71 µM | 4.11 µM |  | 
3 | COc1ccc(-c2csc3c2-n2cccc2C3=O)cc1O | 0.059 µM | 0.4 µM | < 0.01 µM | 0.0434 µM | 0.824 µM | > 47.3 µM | 1.13 µM | 13.5 µM | 0.0326 µM | > 100 µM | 3.68 µM | > 78.1 µM | 9.77 µM | 26.3 µM | < 0.01 µM | 0.0102 µM |  | 
4 | O=C1OCC2=C1C(c1cccc(C(F)(F)F)c1)c1cc3c(cc1N2CCO)CCC3 (stereo not drawn) | 0.217 µM | 45.4 µM | 0.137 µM | 1.35 µM | 0.312 µM | 8.25 µM | 0.0804 µM | 0.397 µM | 0.17 µM | 7.65 µM | 0.167 µM | 5.27 µM | 0.163 µM | 1.59 µM | 0.05 µM | 0.159 µM |  | 
5 | COc1ccc2c(c1)C(=O)c1c-2n(CCCN2CCOCC2)c(=O)c2cc([N+](=O)[O-])ccc12 | < 0.01 µM |  | < 0.01 µM |  | < 0.01 µM | 25.7 µM | < 0.01 µM | 0.117 µM | < 0.01 µM | > 100 µM | < 0.01 µM | > 100 µM | < 0.0111 µM | > 45.4 µM | < 0.01 µM | 11 µM |  | 
6 | COc1ccc(-n2c(C)nc3c(c(C)nn3-c3ccccc3)c2=O)cc1 | 0.057 µM | > 100 µM | 0.0375 µM | 9.1 µM | 0.0701 µM | > 100 µM | 0.0264 µM | 0.0843 µM | 0.036 µM | > 100 µM | 0.0467 µM | > 31.9 µM | 0.12 µM | 1.93 µM | 0.0305 µM | 0.116 µM |  | 
7 | CC1(C)Cc2c(Br)c(Br)c(Br)c(OCC(O)CN3CCOCC3)c2O1 (stereo not drawn) | 10.2 µM | 24.1 µM | 12.4 µM | 26.7 µM | 14.1 µM | 28.4 µM | 12.6 µM | 26.4 µM | 13.4 µM | 29 µM | 3.73 µM | 19 µM | 13.4 µM | 27 µM | 15.5 µM | 31.9 µM |  | 
8 | Oc1ccc(CN(Cc2ccc(C(F)(F)F)cc2)Cc2ccc(O)c3ncccc23)c2cccnc12 | 0.0314 µM | > 100 µM | 0.0218 µM | 0.588 µM | 0.0584 µM | > 100 µM | 0.0409 µM | 97.5 µM | < 0.01 µM | > 100 µM | 0.0717 µM | > 100 µM | 0.091 µM | > 100 µM | 0.0214 µM | > 100 µM |  | 
9 | COc1ccc(-c2cc(-c3nnc(SCC(=O)Nc4ccc(C(C)=O)cc4)o3)c3ccccc3n2)cc1 | > 100 µM | > 100 µM | 30.2 µM | > 100 µM | 20.2 µM | > 100 µM | 24.8 µM | 72.7 µM | > 100 µM | > 100 µM | > 100 µM | > 100 µM | > 100 µM | > 100 µM | > 100 µM | > 100 µM |  | 
10 | NC(=O)NCCSC1CCCCC1O (stereo not drawn) |  |  |  | > 100 µM |  | > 100 µM |  | > 100 µM |  | > 100 µM |  | > 100 µM |  | > 100 µM |  | > 100 µM | > 100 µM | 
11 | Cc1cc(C)c2c(N)c3cccc(C)c3nc2n1 | 3.84 µM | 17 µM | 2.61 µM | 9.7 µM | 3.17 µM | > 100 µM | 1.48 µM | 3.11 µM | 2.14 µM | 10.3 µM | 0.994 µM | 5.27 µM | 0.702 µM | 2.17 µM | 2.26 µM | 8.62 µM |  | 
12 | CCN1CCC(CC(=O)Nc2n[nH]c3nc(-c4cccs4)c(Br)cc23)CC1 | 9.57 µM | > 25 µM | 6.74 µM | > 16.8 µM | 12.8 µM | > 25 µM | 7.87 µM | > 25 µM | 6.29 µM | 18.5 µM | 4.47 µM | 11.1 µM | 3.91 µM | 8.16 µM | 5.35 µM | 14.5 µM |  | 
13 | c1cncc(CNc2ncn[nH]2)c1 |  |  |  | > 100 µM |  | > 100 µM |  | > 100 µM |  | > 100 µM |  | > 100 µM |  | > 100 µM |  | > 100 µM | > 100 µM | 
14 | COc1cc2c3c(n(C)c(=O)c2cc1OC)-c1cc2c(cc1/C3=C/[C@H](N)CCCCN)OCO2 | 0.0526 µM | > 100 µM | 0.665 µM | 5.85 µM | 1.27 µM | 7.43 µM | 4.72 µM | 22.7 µM | 0.537 µM | 3.93 µM | 1.65 µM | > 100 µM | 1.18 µM | > 19.8 µM | 0.293 µM | 4.69 µM |  | 
15 | CC1(C)N[P+]2(Nc3ccccc3O2)OC1=O (stereo not drawn) |  | > 100 µM |  |  |  | > 100 µM |  | > 100 µM |  | > 100 µM |  | > 100 µM |  | 49.9 µM |  | 33.2 µM | 38.7 µM | 
16 | CCCCCCCCCCCCCCCCn1cc[n+](Cc2ccccc2)c1C | 0.401 µM | 2.48 µM | 0.451 µM | 1.88 µM | 1.09 µM | 2.29 µM | 1.69 µM and 0.421 µM | 3.94 µM and 1.8 µM | 1.12 µM and 0.289 µM | 2.39 µM and 0.968 µM | 0.297 µM | 1.08 µM |  |  |  |  | 1.32 µM | 0.328 µM
